Experimental data taken from ChEMBL document CHEMBL1201862, “PubChem BioAssay data set” (2004).
Values joined by “and” are separate entries in the source; they are usually repeats but may differ in a detail not shown here. Identical values can stand only once.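 Tested at 5 concentrations; 48 h exposure; 96-well plates; endpoints linearly interpolated, else capped at highest concentration. At the GI50, growth is halved.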 Active and inactive are the calls of the source. No stated cut-off is given here; in the data, active = GI50 up to about 1.1 µM and inactive = higher.

Key:
Assay in all cases: NCI anticancer screen, dose series, 48 h
DU-145 = test system: DU-145
SF-268 = test system: SF-268
SF-295 = test system: SF-295
HOP-62 = test system: HOP-62
CCRF-CEM = test system: CCRF-CEM
OVCAR-3 = test system: OVCAR-3
EKVX = test system: EKVX
HCT-15 = test system: HCT-15
A498 = test system: A498
IGROV-1 = test system: IGROV-1
NCI-H226 = test system: NCI-H226
OVCAR-8 = test system: OVCAR-8
SNB-75 = test system: SNB-75
HT-29 = test system: HT-29
MCF7 = test system: MCF7
TK-10 = test system: TK-10
LOX IMVI = test system: LOX IMVI
HOP-92 = test system: HOP-92
NCI-H460 = test system: NCI-H460
RXF 393 = test system: RXF 393

Row | SMILES | GI50 (DU-145) | GI50 (SF-268) | GI50 (SF-295) | GI50 (HOP-62) | GI50 (CCRF-CEM) | GI50 (OVCAR-3) | GI50 (EKVX) | GI50 (HCT-15) | GI50 (A498) | GI50 (IGROV-1) | GI50 (NCI-H226) | GI50 (OVCAR-8) | GI50 (SNB-75) | GI50 (HT-29) | GI50 (MCF7) | GI50 (TK-10) | GI50 (LOX IMVI) | GI50 (HOP-92) | GI50 (NCI-H460) | GI50 (RXF 393)
1 | CCCCNC(=S)Nc1nc(C(=O)NNC(=S)NCC)cs1 | 73.5 µM (inactive) | > 100 µM (inactive) | > 100 µM (inactive) | > 100 µM (inactive) | 44 µM (inactive) | 44 µM (inactive) | 16.5 µM (inactive) | 23 µM | > 100 µM (inactive) | 78.5 µM (inactive) | > 10 µM (inactive) | > 100 µM (inactive) | > 100 µM (inactive) | 53.8 µM (inactive) | > 100 µM (inactive) | > 100 µM (inactive) | 33.2 µM (inactive) |  |  | 
2 | COc1ccc(-n2cnc3c(NC(Cc4ccccc4)C(=O)O)ncnc32)cc1 (stereo not drawn) | > 100 µM (inactive) | > 100 µM (inactive) | > 100 µM (inactive) | > 100 µM (inactive) | > 100 µM (inactive) | > 100 µM (inactive) | > 100 µM (inactive) | > 100 µM | > 100 µM (inactive) | > 100 µM (inactive) | > 100 µM (inactive) | > 100 µM (inactive) | > 100 µM (inactive) | > 100 µM (inactive) | > 100 µM (inactive) | > 100 µM (inactive) | > 100 µM (inactive) | > 100 µM (inactive) | > 100 µM (inactive) | 
3 | CCN(CC)c1ccc2cc(-c3csc(-c4ccc(N(C)C)cc4)n3)c(=O)oc2c1 | > 100 µM (inactive) | > 100 µM (inactive) | > 100 µM (inactive) | > 100 µM (inactive) | > 100 µM (inactive) |  | > 100 µM (inactive) | > 100 µM |  | > 100 µM (inactive) | > 100 µM (inactive) | > 100 µM (inactive) | 23.1 µM (inactive) | > 100 µM (inactive) | > 100 µM (inactive) | > 100 µM (inactive) | > 100 µM (inactive) | > 100 µM (inactive) | > 100 µM (inactive) | > 100 µM (inactive)
4 | COC1(C(C)(C)C)C=C(C(C)(C)C)P(=O)(O)O1 (stereo not drawn) | > 100 µM (inactive) | > 100 µM (inactive) | > 100 µM (inactive) | > 100 µM (inactive) |  | > 100 µM (inactive) | > 100 µM (inactive) | > 100 µM | > 100 µM (inactive) | > 100 µM (inactive) |  | > 100 µM (inactive) | > 100 µM (inactive) | > 100 µM (inactive) | > 100 µM (inactive) | > 100 µM (inactive) | > 100 µM (inactive) | > 100 µM (inactive) | > 100 µM (inactive) | 
5 | CN(Cc1c[n+]([O-])c2nc(N)nc(N)c2n1)c1ccc(C(=O)NC23CC4CC(CC(C4)C2)C3)cc1 | > 100 µM (inactive) | 26.3 µM (inactive) | > 100 µM (inactive) | > 100 µM (inactive) | 28.6 µM (inactive) | > 100 µM (inactive) | > 100 µM (inactive) | > 100 µM | 13.5 µM (inactive) | 54.3 µM (inactive) | > 100 µM (inactive) | > 100 µM (inactive) | 20.2 µM (inactive) |  | 47.8 µM (inactive) | > 100 µM (inactive) | > 100 µM (inactive) |  | > 100 µM (inactive) | 31.2 µM (inactive)
6 | O=C(Cc1ccc(Cl)c(Cl)c1)NCC1(N2CCCCC2)CCCCC1 | 61 µM (inactive) | 85.3 µM (inactive) | 37.3 µM (inactive) | > 100 µM (inactive) | 51.3 µM (inactive) | 86.5 µM (inactive) | 59.8 µM (inactive) | 38.7 µM | 60.7 µM (inactive) | > 100 µM (inactive) |  | 97.3 µM (inactive) |  | 26.1 µM (inactive) | 43.6 µM (inactive) | 28.8 µM (inactive) | 36.6 µM (inactive) | 78.7 µM (inactive) | 36.8 µM (inactive) | 21.6 µM (inactive)
7 | Clc1ccc(OCC2NC3C=CC32)cn1 (stereo not drawn) | > 100 µM (inactive) | > 100 µM (inactive) | > 100 µM (inactive) | > 100 µM (inactive) | 56.9 µM (inactive) | > 100 µM (inactive) | 24.9 µM (inactive) | > 100 µM |  | > 100 µM (inactive) | > 100 µM (inactive) | > 100 µM (inactive) | > 100 µM (inactive) | 50.1 µM (inactive) | 55 µM (inactive) | > 100 µM (inactive) | > 100 µM (inactive) | 67 µM (inactive) | > 100 µM (inactive) | > 100 µM (inactive)
8 | O=C(CSCC(=O)N/N=C\c1cccc(Br)c1)N/N=C\c1cccc(Br)c1 | 21.8 µM (inactive) | 14.1 µM (inactive) | 14.9 µM (inactive) | 17.4 µM (inactive) |  | 13.4 µM (inactive) | 27.1 µM (inactive) | 21.2 µM |  | 17.1 µM (inactive) | 15.7 µM (inactive) | 15.3 µM (inactive) | 18.1 µM (inactive) | 23.1 µM (inactive) | 33.1 µM (inactive) | 11.6 µM (inactive) | 10.8 µM (inactive) | 18.9 µM (inactive) | 25.2 µM (inactive) | 20.3 µM (inactive)
9 | CN(C)CCNC(=O)c1nc([N+](=O)[O-])cn1C | > 100 µM (inactive) | > 100 µM (inactive) | > 100 µM (inactive) | > 100 µM (inactive) | > 100 µM (inactive) | > 100 µM (inactive) |  | > 100 µM | > 100 µM (inactive) | > 100 µM (inactive) |  | > 100 µM (inactive) | > 100 µM (inactive) | > 100 µM (inactive) | > 100 µM (inactive) | > 100 µM (inactive) | > 100 µM (inactive) | > 100 µM (inactive) | > 100 µM (inactive) | 
10 | O=[N+]([O-])c1ccc(O)c(/C=N/CC2CCCN3CCCCC23)c1 (stereo not drawn) | 42.2 µM (inactive) | 21.3 µM (inactive) | 31.2 µM (inactive) | 83.4 µM (inactive) |  | 31 µM (inactive) | 31.4 µM (inactive) | 41.1 µM |  | 43.9 µM (inactive) | 26.5 µM (inactive) | 30.8 µM (inactive) | 23.7 µM (inactive) | 35.6 µM (inactive) | 46.8 µM (inactive) | > 100 µM (inactive) | 38.8 µM (inactive) |  | 45.8 µM (inactive) | 23 µM (inactive)
11 | CN1CCN(C(=S)N(C(=O)c2ccc(Cl)cc2)C2CCCCC2)CC1 | > 100 µM (inactive) | > 100 µM (inactive) | > 100 µM (inactive) |  | 72.4 µM (inactive) | > 100 µM (inactive) |  | > 100 µM |  | > 100 µM (inactive) | > 100 µM (inactive) | > 100 µM (inactive) | 20 µM (inactive) | > 100 µM (inactive) | > 100 µM (inactive) | > 100 µM (inactive) | > 100 µM (inactive) | > 100 µM (inactive) | > 100 µM (inactive) | > 100 µM (inactive)
12 | Cc1ccc(-n2nnc(C(N)=O)c2O)cc1 | > 100 µM (inactive) | > 100 µM (inactive) | > 100 µM (inactive) | > 100 µM (inactive) | > 100 µM (inactive) | > 100 µM (inactive) | > 100 µM (inactive) | > 100 µM |  | > 100 µM (inactive) | > 100 µM (inactive) | > 100 µM (inactive) | > 100 µM (inactive) | > 100 µM (inactive) | > 100 µM (inactive) | > 100 µM (inactive) |  |  | > 100 µM (inactive) | > 100 µM (inactive)
13 | CC#CC#C/C=C1\C=CC2(OC=CC2OC(C)=O)O1 (stereo not drawn) | 20.4 µM (inactive) | 23.7 µM (inactive) and 19.4 µM (inactive) | 47.8 µM (inactive) and 34.3 µM (inactive) | > 100 µM (inactive) | 8.41 µM (inactive) and 14 µM (inactive) | 32.2 µM (inactive) | 29.9 µM (inactive) and > 40 µM (inactive) |  | 47.6 µM (inactive) and 80.9 µM (inactive) | > 42.9 µM (inactive) and 42 µM (inactive) |  | 31.4 µM (inactive) and 17.9 µM (inactive) | 38.3 µM (inactive) and 24.9 µM (inactive) | 16.1 µM (inactive) and 22.4 µM (inactive) | 14.4 µM (inactive) | 34 µM (inactive) and 28.1 µM (inactive) | 30.1 µM (inactive) and 16.1 µM (inactive) | 20.6 µM (inactive) and 22.3 µM (inactive) | 32.3 µM (inactive) and 21.7 µM (inactive) | 12.6 µM (inactive)
14 | CC(=O)C1C(=O)C(=O)N(c2ccc([N+](=O)[O-])cc2[N+](=O)[O-])C1=O (stereo not drawn) | > 100 µM (inactive) | > 100 µM (inactive) | > 100 µM (inactive) | > 100 µM (inactive) | > 100 µM (inactive) | > 100 µM (inactive) | 56.5 µM (inactive) | > 100 µM |  | > 100 µM (inactive) | > 100 µM (inactive) | > 100 µM (inactive) | > 100 µM (inactive) | > 100 µM (inactive) | > 100 µM (inactive) | 80.4 µM (inactive) | > 100 µM (inactive) | > 100 µM (inactive) | > 100 µM (inactive) | 1.96 µM (inactive)
15 | CC(=O)O[C@H]1C[C@H](O[C@H]2[C@@H](O)C[C@H](O[C@H]3[C@@H](O)C[C@H](O[C@H]4CC[C@@]5(C)[C@H](CC[C@@H]6[C@@H]5CC[C@]5(O)[C@@H](C7=CC(=O)OC7)CC[C@]65O)C4)O[C@@H]3C)O[C@@H]2C)O[C@H](C)[C@H]1O[C@@H]1O[C@H](CO)[C@@H](O)[C@H](O)[C@H]1O | 0.243 µM (active) | 0.358 µM (active) | 0.344 µM (active) | 0.0664 µM (active) | 0.116 µM (active) | 0.349 µM (active) | 0.233 µM (active) | 0.293 µM | 0.383 µM (active) | 0.356 µM (active) | 1.29 µM (inactive) | 0.452 µM (active) | 0.908 µM (active) | 0.286 µM (active) | 0.52 µM (active) | 0.428 µM (active) | 0.271 µM (active) | 0.792 µM (active) | 0.106 µM (active) | 
